Patent US20110105493A1, “HETEROCYCLYL SUBSTITUTED ARYLINDENOPYRIMIDINES AND THEIR USE AS HIGHLY SELECTIVE ADENOSINE A2a RECEPTOR ANTAGONISTS” (priority 2009, published 2011)

Experiments:
[1] = target: T1, human adenosine A2A receptor (Homo sapiens, UniProt P29274); experiment: Adenosine A2A Receptor Functional Assay (A2A GAL2); type: cell-based; conditions: for IC50: CHO-K1 cells overexpressing human A2A receptor, cAMP inducible beta-galactosidase reporter, 15 nM NECA agonist challenge, read-out: A2AGal2; for A1/A2A: ratio of A1Gal2 to A2AGal2 values
T1 construct: expressed in transfected cells; host or cells: CHO-K1 cells with a cAMP inducible beta-galactosidase reporter gene
T1 sequence (P29274 whole entry): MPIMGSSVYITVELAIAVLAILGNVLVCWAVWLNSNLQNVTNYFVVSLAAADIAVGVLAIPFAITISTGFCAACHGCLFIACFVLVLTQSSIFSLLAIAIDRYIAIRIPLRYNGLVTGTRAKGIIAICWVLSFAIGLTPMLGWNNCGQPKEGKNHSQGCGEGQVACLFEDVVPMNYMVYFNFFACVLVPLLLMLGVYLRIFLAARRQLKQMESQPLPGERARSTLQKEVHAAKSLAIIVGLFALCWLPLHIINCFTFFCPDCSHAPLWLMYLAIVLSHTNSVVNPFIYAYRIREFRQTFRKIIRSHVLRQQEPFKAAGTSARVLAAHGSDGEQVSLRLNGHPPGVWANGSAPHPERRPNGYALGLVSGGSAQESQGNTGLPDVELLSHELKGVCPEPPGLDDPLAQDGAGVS
Method: Adenosine A2A Receptor Functional Assay (A2A GAL2)
To initiate the functional assay, cryopreserved CHO—K1 cells overexpressing the human adenosine A2A receptor and containing a cAMP inducible beta-galactosidase reporter gene were thawed, centrifuged, DMSO containing media removed, and then seeded with fresh culture media into clear 384-well tissue culture treated plates (BD #353961) at a concentration of 10K cells/well. Prior to assay, these plates were cultured for two days at 37° C., 5% CO2, 90% Rh. On the day of the functional assay, culture media was removed and replaced with 45 μL assay medium (Hams/F-12 Modified (Mediatech # 10-080CV) supplemented w/0.1% BSA). Test compounds were diluted and 11 point curves created at a 1000× concentration in 100% DMSO. Immediately after addition of assay media to the cell plates, 50 nL of the appropriate test compound antagonist or agonist control curves were added to cell plates using a Cartesian Hummingbird. Compound curves were allowed to incubate at room temperature on cell plates for approximately 15 minutes before addition of a 15 nM NECA (Sigma E2387) agonist challenge (5 μL volume). A control curve of NECA, a DMSO/Media control, and a single dose of Forskolin (Sigma F3917) were also included on each plate. After additions, cell plates were allowed to incubate at 37° C., 5% CO2, 90% Rh for 5.5-6 hours. After incubation, media were removed, and cell plates were washed 1×50 μL with DPBS w/o Ca & Mg (Mediatech 21-031-CV). Into dry wells, 20 μL of 1×Reporter Lysis Buffer (Promega E3971 (diluted in dH2O from 5× stock)) was added to each well and plates frozen at −20° C. overnight. For β-galactosidase enzyme colorimetric assay, plates were thawed out at room temperature and 20 μL 2× assay buffer (Promega) was added to each well. Color was allowed to develop at 37° C., 5% CO2, 90% Rh for 1-1.5 h or until reasonable signal appeared. The colorimetric reaction was stopped with the addition of 60 μL/well 1M sodium carbonate. Plates were counted at 405 nm on a SpectraMax Microplate Reader (Molecular Devices). Data was analyzed in Microsoft Excel and IC/EC50 curves were fit using a standardized macro.

[2] = target: T2, human adenosine A1 receptor (Homo sapiens, UniProt P30542); experiment: Adenosine A1 Receptor Functional Assay (A1GAL2); type: cell-based; conditions: CHO-K1 cells overexpressing human A1 receptor, cAMP inducible beta-galactosidase reporter, 4 nM r-PIA/1 uM Forskolin agonist challenge
T2 construct: expressed in transfected cells; host or cells: CHO-K1 cells with a cAMP inducible beta-galactosidase reporter gene
T2 sequence (P30542 1-326): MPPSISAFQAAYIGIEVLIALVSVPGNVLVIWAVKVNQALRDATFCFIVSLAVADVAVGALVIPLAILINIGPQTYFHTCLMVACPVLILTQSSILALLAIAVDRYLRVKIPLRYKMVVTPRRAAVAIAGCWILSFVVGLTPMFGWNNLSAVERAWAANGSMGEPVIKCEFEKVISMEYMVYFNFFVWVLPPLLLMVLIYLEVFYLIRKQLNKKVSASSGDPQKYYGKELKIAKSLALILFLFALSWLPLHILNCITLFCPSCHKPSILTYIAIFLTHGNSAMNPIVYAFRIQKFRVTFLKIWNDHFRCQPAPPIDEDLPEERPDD
Method: Adenosine A1 Receptor Functional Assay (A1GAL2)
To initiate the functional assay, cryopreserved CHO—K1 cells overexpressing the human adenosine A1 receptor and containing a cAMP inducible beta-galactosidase reporter gene were thawed, centrifuged, DMSO containing media removed, and then seeded with fresh culture media into clear 384-well tissue culture treated plates (BD #353961) at a concentration of 10K cells/well. Prior to assay, these plates were cultured for two days at 37° C., 5% CO2, 90% Rh. On the day of the functional assay, culture media was removed and replaced with 45 μL assay medium (Hams/F-12 Modified (Mediatech # 10-080CV) supplemented w/0.1% BSA). Test compounds were diluted and 11 point curves created at a 1000× concentration in 100% DMSO. Immediately after addition of assay media to the cell plates, 50 nL of the appropriate test compound antagonist or agonist control curves were added to cell plates using a Cartesian Hummingbird. Compound curves were allowed to incubate at room temperature on cell plates for approximately 15 minutes before addition of a 4 nM r-PIA (Sigma P4532)/1 uM Forskolin (Sigma F3917) agonist challenge (5 μL volume). A control curve of r-PIA in1 uM Forskolin, a DMSO/Media control, and a single dose of Forskolin were also included on each plate. After additions, cell plates were allowed to incubate at 37° C., 5% CO2, 90% Rh for 5.5-6 hours. After incubation, media was removed, and cell plates were washed 1×50 μL with DPBS w/o Ca & Mg (Mediatech 21-031-CV). Into dry wells, 20 μL of 1×Reporter Lysis Buffer (Promega E3971 (diluted in dH2O from 5× stock)) was added to each well and plates frozen at −20° C. overnight. For β-galactosidase enzyme colorimetric assay, plates were thawed out at room temperature and 20 μL 2×assay buffer (Promega) was added to each well. Color was allowed to develop at 37° C., 5% CO2, 90% Rh for 1-1.5 h or until reasonable signal appeared. The colorimetric reaction was stopped with the addition of 60 μL/well 1M sodium carbonate. Plates were counted at 405 nm on a SpectraMax Microplate Reader (Molecular Devices). Data was analyzed in Microsoft Excel and IC/EC50 curves were fit using a standardized macro.

SMILES | IC50 [1] [µM] | A1/A2A [1] | IC50 [2] [µM]
Nc1nc(-c2ccccc2)c2c(n1)-c1c(cccc1N1CCN(CC3CC3)CC1)C2=O [Example 22, 2-Amino-9-(4-cyclopropylmethyl-piperazin-1-yl)-4-phenyl-indeno[1,2-d]pyrimidin-5-one] | 0.0106 | 77.5711 | 0.818
C=CCN1CCN(c2cccc3c2-c2nc(N)nc(-c4ccccc4)c2C3=O)CC1 [Example 23, 9-(4-Allyl-piperazin-1-yl)-2-amino-4-phenyl-indeno[1,2-d]pyrimidin-5-one] | 0.0125 | 60.0758 | 0.748
Nc1nc(-c2ccccc2)c2c(n1)-c1c(cccc1N1CCC(N3CCOCC3)CC1)C2=O [Example 24, 2-Amino-9-(4-morpholin-4-yl-piperidin-1-yl)-4-phenyl-indeno[1,2-d]pyrimidin-5-one] | 0.0047 | 57.4468 | 0.27
CC(=O)C1(c2ccccc2)CCN(c2cccc3c2-c2nc(N)nc(-c4ccccc4)c2C3=O)CC1 [Example 25, 9-(4-Acetyl-4-phenyl-piperidin-1-yl)-2-amino-4-phenyl-indeno[1,2-d]pyrimidin-5-one] | 0.0042 | 52.381 | 0.22

Compounds with a lower IC50 [1], results first:

IC50 [1] [µM] | A1/A2A [1] | IC50 [2] [µM] | SMILES
0.0015 | 80 | 0.12 | Nc1nc(-c2ccccc2)c2c(n1)-c1c(cccc1N1CCN(c3ccc(Cl)cc3)CC1)C2=O [Example 21, 2-Amino-9-[4-(4-chloro-phenyl)-piperazin-1-yl]-4-phenyl-indeno[1,2-d]pyrimidin-5-one]
0.0006 | 51.6667 | 0.031 | Nc1nc(-c2ccccc2)c2c(n1)-c1c(cccc1N1CCN(c3cccnc3)CC1)C2=O [Example 26, 2-Amino-4-phenyl-9-(4-pyridin-3-yl-piperazin-1-yl)-indeno[1,2-d]pyrimidin-5-one]
